The record followed here is US11780840B2 (Incyte Corporation, priority 2020, dated 2023).

Assay [1] concerns the target T1, catalytic domain (JH1, amino acids 826-1132) of human JAK2 (Homo sapiens, UniProt O60674).
T1 construct: catalytic domain (JH1, amino acids 826-1132) of human JAK2; FLAG (N); purchased Carna Biosciences 08-445-20N; host or cells: baculovirus expression system
In words: JAK2 LanthaScreen JH1 Binding Assay. The settings on record: JAK2 JH1 (1.5 nM), 50 nM fluorescent JAK2-JH1 tracer, 2 hours at 25° C.; read-out: JH1 BIND. The essentials:
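FLAG-tagged, biotinylated JAK2 JH1 (aa 826-1132, baculovirus-expressed; 1.5 nM) incubated 2 h at 25° C with compounds, 50 nM fluorescent tracer and 0.5 nM Streptavidin-Tb in Tris pH 7.5 buffer with MgCl2, Brij-35, BSA, EGTA, glycerol, DTT. Nonspecific binding defined with 2 mM ATP; TR-FRET IC50 from four-parameter fit.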

The target of assay [2] is T2, pseudo-kinase domain (JH2, amino-acids 536-812 with 3 surface mutations W659A, W777A, F794H) of human V617F mutant JAK2 (Homo sapiens, UniProt O60674, F794H/V617F/W659A/W777A).
T2 construct: pseudo-kinase domain (JH2, amino-acids 536-812 with 3 surface mutations W659A, W777A, F794H); His (C); Avi (biotinylated) (C); purchased BPS Bioscience 79498; host or cells: baculovirus expression system
Nature of the assay: JAK2 LanthaScreen JH2-V617F Binding Assay. The settings on record: JAK2 JH2-V617F (0.26 nM), 50 nM Fluorescent JAK2-JH2 Tracer, 1 hour at 25° C.; read-out: JH2 BIND V617F. The method in brief: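 IC50 values came from four-parameter dose-response fits of LanthaScreen signal, read after compounds sat 1 hour at 25° C with 0.26 nM baculovirus-expressed biotinylated protein, 50 nM fluorescent tracer and 0.25 nM streptavidin-Tb cryptate. Non-specific binding was set with 2 mM ATP.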
(In general: In TR-FRET formats the signal depends on donor and acceptor labels being close together.)

Assay [3] addresses T3, pseudo-kinase domain (JH2, amino-acids 536-812 with 3 surface mutations W659A, W777A, F794H) of human Wild Type JAK2 (Homo sapiens, UniProt O60674, F794H/W659A/W777A).
T3 construct: pseudo-kinase domain (JH2, amino-acids 536-812 with 3 surface mutations W659A, W777A, F794H); His (C); Avi (biotinylated) (C); purchased BPS Bioscience 79463; host or cells: baculovirus expression system
Nature of the assay: JAK2 LanthaScreen JH2-WT Binding Assay. The settings on record: JAK2 JH2-WT (0.145 nM), 50 nM Fluorescent JAK2-JH2 Tracer, 1 hour at 25° C.; read-out: JH2 BIND WT. The method in brief:
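TR-FRET tracer displacement: 0.145 nM biotinylated JH2 protein, 50 nM fluorescent tracer, 0.25 nM streptavidin-Tb, compound dilution series; 50 mM Tris pH 7.5, 10 mM MgCl2, 5 mM DTT; 1 h, 25° C. Non-specific binding with 2 mM ATP. IC50 by 4-parameter fit.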

Where only a bound is given, the exact number is not on record here.

T1 sequence (O60674 826-1132): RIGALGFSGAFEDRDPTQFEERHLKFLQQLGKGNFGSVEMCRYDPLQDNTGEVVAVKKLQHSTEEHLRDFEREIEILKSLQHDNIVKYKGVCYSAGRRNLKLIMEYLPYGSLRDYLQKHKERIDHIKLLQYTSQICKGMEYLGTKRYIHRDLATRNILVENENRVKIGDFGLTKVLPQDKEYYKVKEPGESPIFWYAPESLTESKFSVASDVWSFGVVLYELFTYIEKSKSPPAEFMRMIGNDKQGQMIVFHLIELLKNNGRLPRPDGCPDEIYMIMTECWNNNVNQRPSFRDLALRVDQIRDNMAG
T2 sequence (O60674 536-812 V617F/W659A/W777A/F794H): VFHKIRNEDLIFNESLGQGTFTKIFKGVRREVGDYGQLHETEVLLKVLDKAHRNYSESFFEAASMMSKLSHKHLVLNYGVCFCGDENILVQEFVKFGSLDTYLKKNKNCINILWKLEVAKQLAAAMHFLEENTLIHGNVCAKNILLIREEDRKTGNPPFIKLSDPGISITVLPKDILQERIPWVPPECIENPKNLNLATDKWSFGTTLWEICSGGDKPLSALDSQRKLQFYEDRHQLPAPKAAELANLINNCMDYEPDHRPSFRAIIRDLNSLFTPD
T3 sequence (O60674 536-812 W659A/W777A/F794H): as the sequence (O60674 536-812 V617F/W659A/W777A/F794H) above, with F82V counted along it

Consider `Cn1c(=O)n([C@H]2CCCOC2)c2c3c(-c4ccccc4)c(-c4ccc(CN5CCC(S(C)(=O)=O)CC5)cc4)[nH]c3ncc21` [Example 58, (S)-3-Methyl-7-(4-((4-(methylsulfonyl)piperidin-1-yl)methyl)phenyl)-8-phenyl-1-(tetrahydro-2H-pyran-3-yl)-3,6-dihydroimidazo[4,5-d]pyrrolo[2,3-b]pyridin-2(1H)-one], for which the figures for the IC50 in assay [1], in assay [2] and in assay [3] were 100 to 500 nM, 10 to 100 nM and at most 10 nM, respectively.
As to `COc1ccc(-c2[nH]c3ncc4c(c3c2-c2ccc3c(cnn3C)c2)n(C2CCOCC2)c(=O)n4C)cn1` [Example 63, 7-(6-Methoxypyridin-3-yl)-3-methyl-8-(1-methyl-1H-indazol-5-yl)-1-(tetrahydro-2H-pyran-4-yl)-3,6-dihydroimidazo[4,5-d]pyrrolo[2,3-b]pyridin-2(1H)-one], the IC50 in assay [1] was over 1000 nM; in assay [2] it was at most 10 nM; in assay [3], at most 10 nM.
Take `COC1CC=C(c2c(-c3ccc(CN4CCC(S(C)(=O)=O)CC4)cc3)[nH]c3ncc4c(c23)n(C(C)(C)C)c(=O)n4C)CC1` (stereo not drawn) [Example 24, 1-(tert-Butyl)-8-(4-methoxycyclohex-1-en-1-yl)-3-methyl-7-(4-((4-(methylsulfonyl)piperidin-1-yl)methyl)phenyl)-3,6-dihydroimidazo[4,5-d]pyrrolo[2,3-b] pyridin-2(1H)-one]: the IC50 is 500 to 1000 nM in assay [1], at most 10 nM in assay [2] and at most 10 nM in assay [3].
On to `Cn1ncc2cc(-c3c(-c4cnn(CC(F)F)c4)[nH]c4ncc5c(c34)n(C3CCCC3)c(=O)n5C)ccc21` [Example 56, 1-Cyclopentyl-7-(1-(2,2-difluoroethyl)-1H-pyrazol-4-yl)-3-methyl-8-(1-methyl-1H-indazol-5-yl)-3,6-dihydroimidazo[4,5-d]pyrrolo[2,3-b]pyridin-2(1H)-one], for which the IC50 in assay [1] was 100 to 500 nM; in assay [2], at most 10 nM; in assay [3], at most 10 nM.
Turning to `[2H]C([2H])([2H])n1ncc2cc(-c3c(-c4cnn5cccnc45)[nH]c4ncc5c(c34)n(C3CCOCC3)c(=O)n5C)ccc21` [Example 110, 3-Methyl-8-(1-(methyl-d3)-1H-indazol-5-yl)-7-(pyrazolo[1,5-a]pyrimidin-3-yl)-1-(tetrahydro-2H-pyran-4-yl)-3,6-dihydroimidazo[4,5-d]pyrrolo[2,3-b]pyridin-2(1H)-one], the IC50 in assay [1] was over 1000 nM; in assay [2] it was at most 10 nM; in assay [3], at most 10 nM.
Consider `Cn1ncc2cc(-c3c(C4=CCCCC4)[nH]c4ncc5c(c34)n(C3CCCC3)c(=O)n5C)ccc21` [Example 69, 7-(Cyclohex-1-en-1-yl)-1-cyclopentyl-3-methyl-8-(1-methyl-1H-indazol-5-yl)-3,6-dihydroimidazo[4,5-d]pyrrolo[2,3-b]pyridin-2(1H)-one], for which the results for the IC50 in assay [1], in assay [2] and in assay [3] were over 1000 nM, at most 10 nM and at most 10 nM, respectively.
Regarding `Cn1c(=O)n(C2CCCC2)c2c3c(-c4ccccc4)c(-c4cnn(CS(C)(=O)=O)c4)[nH]c3ncc21` [Example 29, 1-Cyclopentyl-3-methyl-7-(1-((methylsulfonyl)methyl)-1H-pyrazol-4-yl)-8-phenyl-3,6-dihydroimidazo[4,5-d]pyrrolo[2,3-b]pyridin-2(1H)-one], the IC50 in assay [1] was 100 to 500 nM; in assay [2] it was at most 10 nM; in assay [3] it was at most 10 nM.
`Cn1ncc2cc(-c3c(-c4ccc(Oc5cccnc5)nc4)[nH]c4ncc5c(c34)n(C3CCCC3)c(=O)n5C)ccc21` [Example 67, 1-Cyclopentyl-3-methyl-8-(1-methyl-1H-indazol-5-yl)-7-(6-(pyridin-3-yloxy)pyridin-3-yl)-3,6-dihydroimidazo[4,5-d]pyrrolo[2,3-b]pyridin-2(1H)-one]: the IC50 in assay [1] was over 1000 nM; in assay [2], 10 to 100 nM; in assay [3], 10 to 100 nM.
